Experimental data as given in EP0719251B1, “BICYCLO (2.2.2) OCTANE DERIVATIVES CHOLECYSTOKININ AND/OR GASTRIN ANTAGONISTS” (JAMES BLACK FOUNDATION LIMITED, priority 1993, dated 1995).

Assays:
CCKB receptor = biological target: T1, CCKB receptor (Mus musculus, UniProt P56481); assay: radioligand binding assay at the CCKB receptor in mouse cortical membranes; settings: [125I]-CCK8S 200pM, 150 min at 21 ± 3°C; for Ki: read-out: CCKB pKi (converted)
T1 construct: The whole brains from male mice (CD1 22-25g; Charles River) were removed; from tissue; host or cells: cerebral cortex membranes of male CD1 mice
T1 sequence (P56481 1-453): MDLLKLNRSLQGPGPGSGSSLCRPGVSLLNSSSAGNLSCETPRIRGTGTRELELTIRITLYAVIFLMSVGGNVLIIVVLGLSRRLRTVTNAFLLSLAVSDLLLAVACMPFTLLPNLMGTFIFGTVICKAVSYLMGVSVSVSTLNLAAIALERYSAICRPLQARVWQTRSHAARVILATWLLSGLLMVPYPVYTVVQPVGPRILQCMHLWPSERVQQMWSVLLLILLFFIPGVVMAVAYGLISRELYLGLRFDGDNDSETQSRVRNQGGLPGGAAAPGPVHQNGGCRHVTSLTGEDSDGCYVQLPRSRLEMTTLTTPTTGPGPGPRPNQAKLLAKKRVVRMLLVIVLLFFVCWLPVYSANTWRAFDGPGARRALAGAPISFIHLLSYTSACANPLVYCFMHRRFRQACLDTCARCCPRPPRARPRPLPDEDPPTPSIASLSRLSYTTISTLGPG
Procedure, shortened: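 Cortical membranes from male CD1 mice prepared in HEPES buffer (pH 7.2, with NaCl, KCl, MgCl2, EDTA, bacitracin) at 2 mg/ml wet weight. Binding stopped by rapid filtration over GF/B filters with ice-cold Tris-HCl washes. Bound radioactivity counted in a gamma-counter.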

gastrin = biological target: T2, gastrin (Rattus norvegicus, UniProt P30553); assay: gastrin antagonist activity in an immature rat stomach assay; settings: isolated immature rat stomach, cumulative pentagastrin dose-response curves, acid secretion; for Kb: read-out: Gastrin pKB (converted)
T2 construct: The stomach was excised and flushed with ca. 1 ml of unbuffered physiological saline solution; from tissue; host or cells: isolated whole stomach of immature rats (33-50 g, ca. 21 days old)
T2 sequence (P30553 1-452): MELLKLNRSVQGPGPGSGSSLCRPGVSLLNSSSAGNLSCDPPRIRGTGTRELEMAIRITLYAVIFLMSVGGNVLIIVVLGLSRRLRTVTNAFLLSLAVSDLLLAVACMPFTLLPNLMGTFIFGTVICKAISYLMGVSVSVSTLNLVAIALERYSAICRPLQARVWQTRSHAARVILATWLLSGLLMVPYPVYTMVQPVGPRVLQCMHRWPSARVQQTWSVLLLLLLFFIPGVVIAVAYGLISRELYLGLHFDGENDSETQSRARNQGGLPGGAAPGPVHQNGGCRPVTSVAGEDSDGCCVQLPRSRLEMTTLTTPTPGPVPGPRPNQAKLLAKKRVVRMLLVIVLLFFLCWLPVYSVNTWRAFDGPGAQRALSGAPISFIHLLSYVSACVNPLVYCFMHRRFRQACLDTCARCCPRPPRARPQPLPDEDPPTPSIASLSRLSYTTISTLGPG
Procedure, shortened: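 Isolated stomachs from immature rats (33-50 g, ca. 21 days) perfused at 1 ml min^-1 with O2-gassed unbuffered saline, perfusate pH monitored by electrode. After 120 min stabilisation, compounds added to serosal bath; cumulative pentagastrin dose-response curves begun 60 min later.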

CCKA = biological target: T3, CCKA (Cavia porcellus, UniProt Q63931); assay: CCKA binding assay in guinea-pig pancreas membranes; settings: [125I]-CCK8(S) 200pM; for Ki: containing 0.375 µM PD134,308, read-out: CCKA pKi (converted)
T3 construct: The pancreatata were removed from male guinea-pigs (200-300g; Dunkin Hartley); from tissue; host or cells: pancreas membranes of male Dunkin Hartley guinea-pigs
T3 sequence (Q63931 1-430): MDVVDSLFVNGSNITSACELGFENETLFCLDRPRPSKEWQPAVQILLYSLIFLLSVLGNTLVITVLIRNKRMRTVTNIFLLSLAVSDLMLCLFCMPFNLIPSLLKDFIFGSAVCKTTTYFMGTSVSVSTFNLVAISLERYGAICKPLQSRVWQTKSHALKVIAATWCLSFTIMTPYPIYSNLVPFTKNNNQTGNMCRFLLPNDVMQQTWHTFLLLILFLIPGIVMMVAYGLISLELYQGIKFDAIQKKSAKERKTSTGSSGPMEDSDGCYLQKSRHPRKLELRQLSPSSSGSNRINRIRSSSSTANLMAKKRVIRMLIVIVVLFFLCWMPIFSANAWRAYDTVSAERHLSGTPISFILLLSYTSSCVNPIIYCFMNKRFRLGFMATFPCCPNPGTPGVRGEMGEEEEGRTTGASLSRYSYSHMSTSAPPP
Procedure, shortened: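 Competition binding of [125I]-CCK8(S) (200 pM in the added solution) to male guinea-pig pancreas membranes (1 mg/ml wet weight) containing 0.375 µM PD134,308, in HEPES buffer pH 7.2. Incubated 150 min at 21 ± 3°, then filtered. Bound radioactivity gamma-counted; non-specific binding defined with 100nM L-364,718.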

| Molecule | Ki (CCKB receptor) | Kb (gastrin) | Ki (CCKA) | CCKB pKi (CCKB receptor) | Gastrin pKB (gastrin; 60 min) | CCKA pKi (CCKA; containing 0.375 µM PD134,308) |
| --- | --- | --- | --- | --- | --- | --- |
| COC(=O)c1cc(NC(=O)[C@H](Cc2ccccc2)NC(=O)C2C3c4ccccc4C(c4ccccc43)C2C(=O)NCC23CC4CC(CC(C4)C2)C3)cc(C(=O)O)c1 (stereo partly drawn) [Example 42, cis-7-(1S-(3-carboxy-5-methoxycarbonyl-phenylaminocarbonyl)-2-phenylethylaminocarbcnyl)-8-(1-adamantanemethylaminocarbonyl) -2,3,5,6-dibenzobicyclo[2.2.2]octane] | 0.0316 µM | 1.58 µM | 2 µM |  |  |  |
| cis-7-(1S-(3,5-dicarboxyphenylaminocarbonyl) -2-(2-thiophenyl)-ethylaminocarbonyl) -8-(1-adamantane-methylaminocarbonyl) -2,3,5,6-dibenzobicyclo[2.2.2]octane [Example 6] |  |  |  | 8.6 | 7.9 | 5.7 |

Results, then the molecule that gave them:

| Ki (CCKB receptor) | Kb (gastrin) | Ki (CCKA) | CCKB pKi (CCKB receptor) | Gastrin pKB (gastrin; 60 min) | CCKA pKi (CCKA; containing 0.375 µM PD134,308) | Molecule |
| --- | --- | --- | --- | --- | --- | --- |
| 0.1 µM | 0.794 µM | 1.26 µM |  |  |  | O=C(O)c1ccc(NC(=O)[C@H](Cc2ccccc2)NC(=O)C2C3c4ccccc4C(c4ccccc43)C2C(=O)NCC23CC4CC(CC(C4)C2)C3)cc1C(=O)O (stereo partly drawn) [Example 43, cis-7-(1S-(3,4-dicarboxyphenylaminocarbonyl)-2-phenylethylaminocarbonyl)-8-(1-adamantanemethylaminocarbonyl)-2,3,5,6-dibenzobicyclo [2.2.2]octane] |
| 0.0631 µM | 0.01 µM | 2.51 µM |  |  |  | CC(C)(NC(=O)C1C2c3ccccc3C(c3ccccc32)C1C(=O)N[C@@H](Cc1ccccc1)C(=O)Nc1cc(C(=O)O)cc(C(=O)O)c1)C12CC3CC(CC(C3)C1)C2 (stereo partly drawn) [Example 49, cis-7-(1S-(3,5-dicarboxyphenylaminocarbonyl)-2-phenylethylaminocarbonyl)-8-(1-(1-adamantane)-1-methyl-ethylaminocarbonyl) -2,3,5,6-dibenzobicyclo[2.2.2]octane] |
| 0.00398 µM | 0.0794 µM | 3.16 µM |  |  |  | O=C(O)c1cc(NC(=O)[C@H](Cc2ccccc2)NC(=O)C2C3c4ccccc4C(c4ccccc43)C2C(=O)NCCc2ccccc2)cc(C(=O)O)c1 (stereo partly drawn) [Example 53, cis-7-(1S-(3,5-dicarboxyphenylaminocarbonyl) -2-phenylethylaminocarbonyl) -8-(2-phenylethylaminocarbonyl) -2,3,5,6-dibenzobicyclo[2.2.2]octane] |
